# Compound: CC(C)(C)c1cc(NC(=O)Nc2ccc(-c3cn4c(n3)sc3cc(OCCN5CCOCC5)ccc34)cc2)no1 [Quizartinib] + CC(=O)Nc1cccc(-n2c(=O)n(C3CC3)c(=O)c3c(Nc4ccc(I)cc4F)n(C)c(=O)c(C)c32)c1 [Trametinib] (partner 0.02 µM)
# Experiment: relative viability (nuclei count vs DMSO), 5 days (fraction); higher = more cells survive
# Conditions: first compound 0.001 µM
# Outline: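 Lung cancer cell lines, seeded in 1536-well plates, were treated the following day by pin tool with a single drug or with five library-drug doses (not always all listed) in √10 steps on top of a fixed anchor-drug dose. Cells were fixed and nuclei stained in one step after 5 days, and nuclei were counted. Relative viability is the nuclei count for treated wells divided by that for vehicle wells, reported as medians of duplicate plates.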
row,Cell Line,relative viability
1,RERF-LC-KJ,0.797
2,HCC-827,0.535
3,NCI-H2087,0.233
4,SK-MES-1,0.587
5,NCI-H1651,0.715
6,UMC-11,0.417
7,NCI-H1355,0.411
8,NCI-H1792,0.374
9,NCI-H647,0.43
10,LCLC-97TM1,0.158
11,LXF-289,0.613
12,LU99A,0.485
13,NCI-H2023,0.643
14,NCI-H2228,0.513
15,NCI-H1437,0.458
16,NCI-H1395,0.842
17,NCI-H2009,0.266
18,HCC-366,0.314
19,NCI-H1915,0.28
20,NCI-H2347,0.249
21,NCI-H1944,0.453
22,NCI-H2170,0.868
23,SW 900,0.769
24,NCI-H358,0.146
25,CAL-12T,0.371
26,LK-2,0.796
27,NCI-H2342,0.799
28,NCI-H1793,0.395
29,NCI-H522,0.688

# Same assay, conditions: first compound 0.003162 µM
row,Cell Line,relative viability
1,EKVX,0.327
2,EPLC-272H,0.254
3,NCI-H520,0.465
4,NCI-H650,0.938
5,RERF-LC-KJ,0.849
6,HCC-827,0.531
7,NCI-H2087,0.217
8,SK-MES-1,0.542
9,NCI-H1651,0.785
10,UMC-11,0.722
11,NCI-H1355,0.43
12,H3255,0.561
13,NCI-H1792,0.429
14,NCI-H647,0.387
15,LCLC-97TM1,0.186
16,LXF-289,0.692
17,LU99A,0.503

row,Cell Line,relative viability
1,NCI-H2023,0.504
2,NCI-H2228,0.593
3,NCI-H1437,0.482
4,NCI-H1395,0.924
5,NCI-H2009,0.251
6,HCC-366,0.383
7,NCI-H1915,0.31
8,NCI-H2347,0.271
9,NCI-H1944,0.405
10,NCI-H2170,0.907
11,SW 900,0.943
12,NCI-H358,0.146
13,CAL-12T,0.371
14,LK-2,0.671
15,NCI-H2342,0.83
16,NCI-H1793,0.435
17,NCI-H522,0.741

# Same assay, conditions: first compound 0.01 µM
row,Cell Line,relative viability
1,EKVX,0.331
2,EPLC-272H,0.241
3,NCI-H520,0.673
4,NCI-H650,0.96
5,RERF-LC-KJ,0.942
6,NCI-H2087,0.223
7,SK-MES-1,0.553
8,NCI-H1651,0.898
9,UMC-11,0.714
10,NCI-H1355,0.444
11,H3255,0.653
12,NCI-H1792,0.412
13,NCI-H647,0.508
14,LCLC-97TM1,0.191
15,LXF-289,0.709
16,LU99A,0.554
17,NCI-H2023,0.533

row,Cell Line,relative viability
1,NCI-H2228,0.484
2,NCI-H1437,0.492
3,NCI-H1395,0.979
4,NCI-H2009,0.218
5,HCC-366,0.294
6,NCI-H1915,0.331
7,NCI-H2347,0.267
8,NCI-H1944,0.419
9,NCI-H2170,0.92
10,SW 900,0.843
11,NCI-H358,0.11
12,CAL-12T,0.345
13,LK-2,0.801
14,NCI-H2342,0.884
15,NCI-H1793,0.444
16,NCI-H522,0.796

# Same assay, conditions: first compound 0.03162 µM
row,Cell Line,relative viability
1,EKVX,0.437
2,EPLC-272H,0.283
3,NCI-H520,0.637
4,NCI-H650,0.923
5,RERF-LC-KJ,0.62
6,HCC-827,0.509
7,NCI-H2087,0.202
8,SK-MES-1,0.478
9,NCI-H1651,0.797
10,UMC-11,0.728
11,NCI-H1355,0.423
12,H3255,0.637
13,NCI-H1792,0.457
14,NCI-H647,0.434
15,LCLC-97TM1,0.216
16,LXF-289,0.702

row,Cell Line,relative viability
1,LU99A,0.583
2,NCI-H2228,0.436
3,NCI-H1437,0.49
4,NCI-H1395,1.03
5,NCI-H2009,0.246
6,HCC-366,0.326
7,NCI-H1915,0.29
8,NCI-H2347,0.229
9,NCI-H1944,0.448
10,NCI-H2170,1.01
11,SW 900,0.899
12,CAL-12T,0.271
13,LK-2,0.765
14,NCI-H2342,0.9
15,NCI-H1793,0.448
16,NCI-H522,0.53

# Same assay, conditions: first compound 0.1 µM
row,Cell Line,relative viability
1,EKVX,0.284
2,EPLC-272H,0.304
3,NCI-H520,0.486
4,NCI-H650,1.06
5,RERF-LC-KJ,0.844
6,HCC-827,0.572
7,NCI-H2087,0.19
8,SK-MES-1,0.512
9,NCI-H1651,0.859
10,UMC-11,0.644
11,NCI-H1355,0.357
12,H3255,0.663
13,NCI-H1792,0.293
14,NCI-H647,0.396
15,LCLC-97TM1,0.184
16,LXF-289,0.622
17,LU99A,0.518
18,NCI-H2023,0.615
19,NCI-H2228,0.511
20,NCI-H1437,0.346
21,NCI-H1395,1.13
22,NCI-H2009,0.247
23,HCC-366,0.346
24,NCI-H1915,0.313
25,NCI-H2347,0.287
26,NCI-H1944,0.313
27,NCI-H2170,0.947
28,SW 900,0.803

# From the supplement of paper PMC10307832
